Test results published in US4044043A, “Derivatives of 9-oxo-13-trans-prostenoic acid esters” (American Cyanamid Company, priority 1975, dated 1977).
Values after ≈ are worked out from the molar mass of the structure shown.

Key:
[1] = system: Mycobacterium smegmatis ATCC 606; experiment: agar-dilution streak-plate antimicrobial assay; format: cell-based; details: Mycolicibacterium smegmatis, ATCC606, read-out: Minimal inhibitory conc. (6)
Description: The novel compounds of the present invention are also useful as antimicrobial agents. […] In this assay, the compounds to be tested are made up to contain 2.5 mg. of test compound per milliliter of solution. Observing sterile techniques, two-fold serial dilution are made of each test solution. One milliliter of each of the original solutions and of each of the serial dilutions is then added to 9 ml. of warm sterile nutrient agar capable of supporting growth of the bacterial test cultures. A second set of agar dilutions is prepared identical to the first except that the nutrient agar is designed to support the growth of the fungal test cultures. […] The test bacteria and yeast-like fungi are prepared for use by growing in broth overnight. The spores of the filamentous fungi are harvested from mature agar slant cultures and are suspended in sterile physiological saline solution. A loopful of each of the resulting live suspensions is then, still employing sterile techniques, streaked upon the surfaces of each of the agar plates and the resulting streaked plates are then incubated. After an appropriate period of time, each of the streaks on each of the plates is inspected visually and the extent, if any, of bacterial or fungal growth is noted. The minimal inhibitory concentration (expressed in micrograms per milliliter) is defined as the concentration of test compound causing complete inhibition of growth of any particular organism. In a representative operation, and merely by way of illustration, the minimal inhibitory concentration of typical compounds of the present invention against a variety of test organisms as determined in the above-described assay are set forth in Tables II and III below: […]

[2] = system: gastric acid secretion; experiment: Inhibition of Gastric Acid Secretion (Pylorous-Ligated Rat), Shay rat procedure; format: in vivo, rats (male, CFE strain); details: 100 mg./kg. intraduodenal, read-out: % Inhibition of Control Gastric Acid Secretion
Text: The novel compounds of the present invention are also effective inhibitors of gastric acid secretion and of ulcer development in experimental animals, and thus are potentially valuable as agents for the control of gastric acid secretion and of gastric erosion and as anti-ulcer agents. Gastric acid secretion inhibitory action is usually measured by the Shay rat procedure ^(1,2) with some modifications as follows. 6 1. Shay et al., Gastroenterology, 5, 43 (1945). 6 2. Shay et al., Gastroenterology, 26, 906 (1954).
The rats (male, CFE strain) were starved for 48 hours (water was given ad libitum) to permit evacuation of stomach contents. On the morning of the experiment, under ether anesthesia, the abdominal region was shaved and a midline incision (1-1 1/2 inch) was made with a scalpel. With the help of a closed curved hemostat the duodenum was picked up. Upon getting the duodenum into view fingers were used to pull the stomach through the opening, the stomach was then gently manipulated with fingers to rid stomach of air and residual matter which were pushed through the pylorus. Two 5-inch sutures were drawn under the pyloric-duodenal puncture. A ligature, at the juncture, was formed with one of the threads. The second ligature was also formed but not tightened.
The test compound or the vehicle, usually 1 ml./100 g. body weight, were injected into the duodenum as close as possible to the first ligature. After injection the second ligature was tightened below the injection site to minimize leakage. The stomach was placed back through the opening into the abdominal cavity, the area of incision was washed with saline and the incision was closed with autoclips. (Ocasionally instead of an intraduodenal injection, animals were dosed by the oral or subcutaneous route. In the latter case, dosing was done thirty to sixty minutes before the operation).
The abdominal cavity was exposed by cutting with scissors and the esophagus close to the stomach was clamped off with a hemostat, the stomach was removed by cutting above the hemostat (the esophagus was cut) and between the two sutures. Extraneous tissue was removed, the stomach washed with saline and blotted on gauze. A slit was carefully made in the stomach which was held over a funnel and the contents were collected in a centrifuge tube. The stomach was further cut along the outside edge and turned inside out. Two ml. of water were used to wash the stomach contents into the respective centrifuge tube. The combined stomach contents and wash were then centrifuged out for 10 minutes in the International Size 2 Centrifuge (setting at 30). The supernatant was collected, volume measured and recorded, 2 drops of phenolphthalein indicator (1% in 95% ethanol) were added and the solution was titrated with 0.02N NaOH (or with 0.04N NaOH when large volumes of stomach contents were encountered) to pH 8.4 (because of usual coloring of the stomach contents, phenolphthalein was only used to permit visual indication that the end point was near) and the amount of acid present was calculated.
Compounds inducing inhibition of gastric acid secretion of 20% or more were considered active. In a representative operation, and merely by way of illustration, the results obtained with this assay with typical compounds of the present invention are given in Table IIIA.

[3] = system: diastolic blood pressure; experiment: Prostaglandin-like hypotensive activity in anesthetized rats (minimal dose for about 10 mm. decrease in diastolic blood pressure); format: in vivo, Male Wistar strain rats; details: Rattus norvegicus; intravenous; decrease of about 10 mm. in diastolic blood pressure
Description: This procedure is a modification of the technique described by Pike et al., Prostaglandins, Nobel Symposium 2, Stockholm, June, 1966; p, 165.
Male Wistar strain rats (Royal Hart Farms) averaging approximately 250 grams in weight were fastened to rat boards in a supine position by means of canvas vests and limb ties. The femoral area was infiltrated subcutaneously with lidocaine and the iliac artery and vein exposed and cannulated. Arterial blood pressure (systolic/diastolic) was recorded using a Statham P23 Db pressure transducer-Offner dynograph system. To obtain a stable blood pressure, the animals were anesthetized before use with pentobarbital, 30 mg./kg. of body weight intravenously, and also were given hexamethonium bitartrate, 2 mg./kg. of body weight intravenously. The test compounds were prepared by ultrasonic dispersion in a saline-Tween 80 ® vehicle. A constant intravenous dose volume of 0.5 ml. was administered and test doses ranged from 0.1 to 10.0 mg./kg. of body weight. Increasing or decreasing doses were selected depending on the dose response obtained. In Table I below are set forth the minimal doses required to produce a decrease of about 10 mm. in diastolic blood pressure for typical compounds of the present invention.

[4] = system: dl-PGE1-induced contraction of gerbil colon; experiment: Inhibition of dl-PGE1-Induced Contraction of Gerbil Colon (prostaglandin antagonist action); format: cell-based, gerbils (Meriones unguiculatus); details: for IC50: Meriones unguiculatus, 1 min, sub-maximal challenge, 20 ng./ml. dl-PGE1, 50% inhibition of maximum response, read-out: ID50 vs. 20 ng. of PGE1/ml.
Description: The compounds of this invention are also useful as antagonists of prostaglandin action and accordingly they are potentially useful as anti-inflammatory agents, and as agents for the treatment of periodontal diseases and diarrhea. Testing for prostaglandin antagonist action is carried out in the following manner. Sections of ascending colon, approximately 20 mm. long, from mature male gerbils (Meriones unguiculatus) weighing 70-80 g. were mounted in De Jalon's solution (154 mM NaCl; 5.95 mM NAHCO3; […], 5.64 mM KC and .27 mM CaCl2 in 20 ml. tissue baths) (L and K Glass Co., Lynnhurst, N.J.). The medium was continually gassed with a mixture of 95% 02 -5% CO2 and maintained at 37° C. The tissues were suspended via silk suture threads between a glass hook at the base and a model FT .03C force displacement transducer (Grass Instruments, Quincy, Massachusetts). Contractions were recorded on a Poly-Viso ® polygraph (Sanborn Co., Cambridge, Massachusetts). After mounting, tissues were allowed to stabilize 15-20 minutes during which time adjustments were made to establish and maintain a 0.5 g. resting tension on the muscle. Thereafter, test cycles of 3-5 minutes were begun and consisted of a 1 minute exposure to the potential antagonist, if called for, followed by a 1 minute exposure to the prostaglandin agonist, a 15-30 sec. washout and a recovery period of 2-2.5 minutes. […] During the washout period, the tissue was rinsed with a measured amount equalling 8 volumes of medium. Muscle relaxation was virtually complete by the end of the washout period. During preliminary tests it was noted that a final concentration of 200 ng./ml. of a racemic mixture of synthetic prostaglandin-E1 (dl-PGE1) produced maximal muscle contraction. Following stabilization, muscles were exposed 2 to 3 times to this concentration of dl-PGE1 until a consistent response was recorded. Once maximal responses were established, test cycles with potential antagonists were commenced and were followed alternately with prostaglandin-only test cycle. […] The contraction of the muscle induced by 200 ng./ml. dl-PGE1 following exposure to a given concentration of the potential antagonist was always compared to the response of the tissue to that level of dl PGE1 in the immediately preceding cycle. Using a series of potential antagonist concentrations, an approximate ID50 (concentration at which 50% inhibition was observed) was established. The compounds were also tested against a sub-maximal prostaglandin challenge (20 ng./ml. dl-PGE1) in which case activity is reported in terms of a 50% inhibition of maximum response.

Compound | inhibition in vivo at 100 mg/kg [2] [%] | further results
CCCCCC/C=C/[C@H]1CCC(=O)[C@@H]1CCCCC(=O)OCC (relative stereo) [ethyl 9-oxo-6,7-dinor-13-trans-prostenoate] |  | MIC [1]: 250 µg/mL (≈ 775 µM)
CCCCCC/C=C/[C@@H]1CCC(=NNc2cc(Cl)ccc2Cl)[C@H]1CCCCCCC(=O)O (relative stereo) [9-Oxo-13-trans-prostenoic acid 2,5-dichlorophenylhydrazone] | 30 | 
CCCCCCC=CC1CC(c2ccccc2)C(=O)C1CCCCCCC(=O)OCC (stereo not drawn) [Ethyl 9-oxo-10-phenyl-13-trans-prostenoate] | 24 | 
CCCCCCC=CC1CC(SC)C(=O)C1CCCCCCC(=O)OCC (stereo not drawn) [Ethyl 10-methylthio-9-oxo-13-trans-prostenoate] | 35 | 
CC[S+]([O-])CCC/C=C/[C@@H]1CCC(=O)[C@H]1CCCCCCC(=O)O (relative stereo) [9-oxo-18-oxythia-13-trans-prostenoic acid] |  | minimal effective dose [3]: 2 to 8 mg/kg
CCC/C=C/[C@H]1CCCC(=O)[C@@H]1CCCCCCC(=O)OCC (relative stereo) [ethyl 9-oxo-18,19,20-trinor-10a-homo-13-transprostenoate] | 37 | 
CCCCCCC=CC1CC(F)C(=O)C1CCCCCCC(=O)OCC (stereo not drawn) [Ethyl 10-fluoro-9-oxo-13-trans-prostenoate] | 25 | 
CCOC(=O)CCCCCC[C@H]1C(=O)CC[C@@H]1/C=C/CCCCCCI (relative stereo) [ethyl 20-iodo-9-oxo-13-trans-prostenoate] | 42 | MIC [1]: 62 µg/mL (≈ 130 µM)
CC/C=C\CC/C=C/[C@H]1CCC(=O)[C@@H]1CCCCCCC(=O)OCC (relative stereo) [ethyl 9-oxo-13-trans-17-cis-prostadienoate] |  | minimal effective dose [3]: 0.2 to 2 mg/kg
CCC/C=C/[C@@H]1CCC(=O)[C@H]1CCCCOCC(=O)OCC (relative stereo) [ethyl 9-oxo-3-oxa-18,19,20-trinor-13-trans-prostenoate] | 65 | 
CCCCCC/C=C/[C@@H]1CCC(=O)[C@H]1CCCCCCC(=O)OCCCC (relative stereo) [butyl 9-oxo-13-trans-prostenoic acid] | 46 | 
CCCCCCC=CC1CC(C#N)C(=O)C1CCCCCCC(=O)OCC (stereo not drawn) [Ethyl 10-cyano-9-oxo-13-trans-prostenoate] |  | IC50 [4]: 10 to 25 µg/mL (≈ 26.6 to 66.6 µM)
CCCCCC/C=C/[C@@H]1CCC(=O)[C@H]1CCCCSCC(=O)OCC (relative stereo) [ethyl 9-oxo-3-thia-13-trans-prostenoate] | 39 | 
CCCCC[C@H](O)/C=C/[C@H]1[C@H](O)CC(=O)[C@@H]1CCCCCCC(=O)O (relative stereo) [dl-PGE1, prostaglandin-E1, reference compound] |  | final concentration that produced maximal muscle contraction ([4]; agonist alone, preliminary tests): 200 ng/mL
CCCCCC/C=C/[C@H]1CCC(O)[C@@H]1CCCCCCC(=O)OCC (stereo partly drawn) [ethyl 9-hydroxy-13-trans-prostenoate, ethyl 9α- and 9β-hydroxy-13-trans-prostenoate] |  | MIC [1]: 25 µg/mL (≈ 70.9 µM)
CCC/C=C/[C@@H]1CCCC(=O)[C@H]1CCCCCCC(=O)O (relative stereo) [9-oxo-18,19,20-trinor-10a-homo-13-trans-prostenoic acid] | 39 | IC50 [4]: 1 µg/mL (≈ 3.4 µM)
CCCCCCC/C=C/[C@H]1CCC(=O)[C@@H]1CCCCCCC(=O)OCC (relative stereo) [ethyl 20-methyl-9-oxo-13-trans-prostenoate] | 36 | minimal effective dose [3]: 0.5 mg/kg
CCCCCC/C=C/[C@H]1CCCC(=O)[C@@H]1CCCCCCC(=O)OCC (relative stereo) [ethyl 9-oxo-10a-homo-13-trans-prostenoate] | 46 | minimal effective dose [3]: 2 mg/kg
CCCC=CC1CCC(=O)C1CCCCCC(F)C(=O)OCC (stereo not drawn) [ethyl 9-oxo-2-fluoro-18,19,20-trinor-13-trans-prostenoate] | 84 | 
CCCCCC/C=C/[C@H]1CCC(=O)[C@@H]1CCCCCCC(=O)OCC (relative stereo) [ethyl 9-oxo-13-trans-prostenoate] | 28 | minimal effective dose [3]: 0.5 mg/kg
CC(C)/C=C/[C@H]1CCC(=O)[C@@H]1CCCCCCC(=O)O (relative stereo) [15-methyl-9-oxo-17,18,19,20-tetranor-13-trans-prostenoic acid] |  | IC50 [4]: 25 to 30 µg/mL (≈ 89.2 to 107 µM)
CCOC(=O)CCCCCC[C@H]1C(=O)CC[C@@H]1/C=C/CCCS(=O)(=O)CC (relative stereo) [ethyl 9-oxo-18-dioxythia-13-trans-prostenoate] | 34 | 
